Measured values reported in ChEMBL document CHEMBL5614420, “Development of peptoid-based heteroaryl-decorated histone deacetylase (HDAC) inhibitors with dual-stage antiplasmodial activity” (Eur J Med Chem, 2024).

Key:
[1] = Selectivity index, ratio of IC50 for HEK293 cells to IC50 for CQ-sensitive asexual ring-stage Plasmodium falciparum 3D7 infected in erythrocytes; conditions: human
[2] = Selectivity index, ratio of IC50 for HEK293 cells to IC50 for multidrug-resistant asexual ring-stage Plasmodium falciparum Dd2 infected in erythrocytes; conditions: human
[3] = system: Plasmodium falciparum; experiment: Resistance index, ratio of IC50 for multidrug-resistant asexual ring-stage Plasmodium falciparum Dd2 infected in erythrocytes to IC50 for CQ-sensitive asexual ring-stage Plasmodium falciparum 3D7 infected in erythrocytes; format: functional
[4] = Cytotoxicity against HEK293 cells incubated for 24 hrs by Neutral Red Uptake assay; conditions: human
[5] = in vitro; conditions: human, liver microsomes
[6] = system: Plasmodium falciparum; experiment: Antiplasmodial activity against CQ-sensitive asexual ring-stage Plasmodium falciparum 3D7 infected in erythrocytes assessed as parasitic growth inhibition measured after 72 hrs by ELISA; format: functional, organism-based; conditions: 3D7, Erythrocyte
[7] = in vitro; conditions: human, liver microsomes; remark: listed apart in the source
[8] = system: Plasmodium berghei; experiment: Antiplasmodial activity against exo-erythrocytic stage Plasmodium berghei sporozoites expressing ANKA-GFPLuc-SMCON infected in human HepG2-A16-CD81 cells expressing EGFP assessed as parasitic growth inhibition by […]; format: functional, organism-based
[9] = system: Plasmodium falciparum; experiment: Antiplasmodial activity against multidrug-resistant asexual ring-stage Plasmodium falciparum Dd2 infected in erythrocytes assessed as parasitic growth inhibition measured after 72 hrs by ELISA; format: functional, organism-based; conditions: Dd2, Erythrocyte
[10] = Selectivity index, ratio of IC50 for HEK293 cells to IC50 for exo-erythrocytic stage Plasmodium berghei sporozoites expressing GFP-Luc fused genes infected in human HepG2-A16-CD81 cells expressing EGFP; format: toxicity, cell-based; conditions: read-out: Ratio IC50
[11] = system: Plasmodium berghei; experiment: Antiplasmodial activity against exo-erythrocytic stage Plasmodium berghei sporozoites expressing GFP-Luc fused genes infected in human HepG2-A16-CD81 cells expressing EGFP assessed as parasitic growth inhibition measured for 20 hrs by Bright-Glo Luciferase Assay; format: functional, organism-based; conditions: HepG2-A16-CD81, 20 h
[12] = system: Plasmodium falciparum; experiment: Antiplasmodial activity against synchronous ring-stage Plasmodium falciparum Dd2 infected in human erythrocytes assessed as parasitic growth inhibition measured after 48 hrs by [3H]hypoxanthine incorporation assay; format: functional, organism-based; conditions: Dd2, Erythrocyte
[13] = system: Plasmodium falciparum; experiment: Antiplasmodial activity against synchronous ring-stage Plasmodium falciparum 3D7 infected in human erythrocytes assessed as parasitic growth inhibition measured after 48 hrs by [3H]hypoxanthine incorporation assay; format: functional, organism-based; conditions: 3D7, Erythrocyte
[14] = Cytotoxicity against human NFF cells incubated for 72 hrs by SRB assay
[15] = Selectivity index, ratio of IC50 for human NFF cells to IC50 for synchronous ring-stage Plasmodium falciparum 3D7 infected in human erythrocytes

CC(C)c1ccc(C(=O)N(CC(=O)NCc2ccccc2)Cc2ccc(C(=O)NO)cc2)cc1
selectivity ratio [1]: 1100
selectivity ratio [2]: 284
Ratio IC50 [3]: 4
IC50 at 24 h [4]: 69000 nM
microsomal CLint at 1 h, 1 µM [5]: 112 µL/min/mg
IC50 [6]: 63 nM
half-life at 1 h, 1 µM [7]: 12.4 min
IC50 [8]: 16 nM
IC50 [9]: 243 nM
selectivity ratio [10]: 4310

O=C1C(O)=C([C@H]2CC[C@H](c3ccc(Cl)cc3)CC2)C(=O)c2ccccc21 [ATOVAQUONE]
IC50 [11]: < 0.051 nM

O=C(/C=C/c1cccc(S(=O)(=O)Nc2ccccc2)c1)NO [BELINOSTAT]
IC50 [12]: 130 nM
IC50 [13]: 60 nM
IC50 at 72 h [14]: 2370 nM
selectivity ratio [15]: 40

CCN(CC)CCCC(C)Nc1ccnc2cc(Cl)ccc12 (configuration not stated) [CHLOROQUINE]
IC50 at 24 h [4]: 265000 nM

Cc1[nH]c2ccccc2c1CCNCc1ccc(/C=C/C(=O)NO)cc1 [PANOBINOSTAT]
IC50 [12]: 30 nM
IC50 [13]: 10 nM
IC50 at 72 h [14]: 70 nM
selectivity ratio [15]: 7

C/C=C1\NC(=O)[C@H]2CSSCC/C=C/[C@H](CC(=O)N[C@H](C(C)C)C(=O)N2)OC(=O)[C@H](C(C)C)NC1=O [ROMIDEPSIN]
IC50 at 72 h [14]: 1 nM
selectivity ratio [15]: < 1
